According to EP0834302A1, “Compositions comprising glutathione liposomes” (Boehringer Ingelheim Limited, priority 1996, dated 1998):

How the values were obtained:
[1] = Depth of glutathione penetration into the skin: tape stripping with DPPH anti-free radical assay
Procedure: The depth of glutathione penetration into the skin was determined by comparing two different galenic forms: free glutathione in solution (FG) and glutathione encapsulated in a liposome (LG). Since glutathione is a highly reactive free radical scavenger, its presence even in small quantities can be detected by spectroscopic methods.
Gluthione preparations are applied to the skin, and tape strippings are taken after some fixed interval of time. The tape strippings are assayed for anti-free radical activity by DPPH (1,1 Diphenyl-2-picrylhydrazyl) at 8.76 x 10^-3 % (w/v) in methanol) colouration/ discolouration tests (Kim et al. Proc. 17th IFSCC Congress (Yokohama), Vol. 1: 3-14, 1994). […]
On the arms of each volunteer, the 3 test sites were determined in a random way: one site for application of water (negative control), one for application of free glutathione (FG) and one for application of liposome encapsulated glutathione (LG). […]
5 tape strippings were carried out on the control sites after 2µl/cm^2 application of distilled water and a light massage. […] The change in colour was measured on a spectrophotometer at 517nm.
Each test solution was then applied to the designated sites (2µl/cm^2) by slight massaging and left to dry for 30 minutes. […] Colour changes were recorded as described above.

[2] = test system: UVB induced skin erythema; conditions: applied topically in a simple oil-in-water emulsion or as a gel preparation; Int. J. Cos. Sci. 17:91-103, 1995; cited from earlier work

SMILES | Tape strips containing residual scavenger activity, Mean value ([1]; in vivo) | depth of penetration ([1]; result in words, presence of DPPH reactive substances on successive strips) | inhibiting UVB induced skin erythema [2]
N[C@@H](CCC(=O)N[C@@H](CS)C(=O)NCC(=O)O)C(=O)O [FG, Reduced glutathione] | 1.3 | absence of significant penetration | –
N[C@@H](CCC(=O)N[C@@H](CS)C(=O)NCC(=O)O)C(=O)O [Glutathione] | – | – | ineffective
